{"source": "paper PMC7307906", "about": "“Macrocyclic Modalities Combining Peptide Epitopes and Natural Product Fragments” (Journal of the American Chemical Society, 2020)", "key": {"Recombinant human SPSB2": {"target": "T1, Recombinant human SPSB2 (Homo sapiens, UniProt Q99619)", "T1 construct": "purchased Abcam ab134592", "T1 sequence (Q99619 1-263)": "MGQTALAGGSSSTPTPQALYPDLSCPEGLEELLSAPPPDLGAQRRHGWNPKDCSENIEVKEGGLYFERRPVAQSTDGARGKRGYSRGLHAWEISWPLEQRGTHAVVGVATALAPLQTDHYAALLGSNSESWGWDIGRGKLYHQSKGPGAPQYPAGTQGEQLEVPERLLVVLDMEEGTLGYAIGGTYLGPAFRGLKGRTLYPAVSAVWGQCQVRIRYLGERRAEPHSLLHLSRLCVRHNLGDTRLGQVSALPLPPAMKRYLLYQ", "assay": "Surface plasmon resonance (SPR) binding to immobilized hSPSB2", "settings": "for Kd: hSPSB2, mean ± SEM of three independent experiments; for fold improved binding affinity compared to disulfide-bridged peptide 24: hSPSB2, versus 24; for fold loss of binding for the minor diastereomer: SPR KD, hSPSB2, minor versus major diastereomer", "description": "Example sensorgrams for selected PepNats D1−D4, D7, D8, D10, D12 and D18 interacting with immobilized hSPSB2 using SPR (red). Each PepNat was injected at 0.020 µM, 0.078 µM, 0.313 µM, 1.25 µM and 5 µM concentration in quick succession followed by a longer dissociation time. A binding kinetic model was fitted to each experimental trace (black). All experiments were conducted in triplicates. […]\nto the elution profile of the crude product . The relevant fractions containing the desired product were collected, analyzed by RP-HPLC-MS and accordingly pooled and lyophilized.\nHRMS were obtained on a Thermo Scientific LTQ Fleet Orbitrap mass spectrometer coupled to an Accela HPLC-System (HPLC column: Hypersyl GOLD, 50 mm x 1 mm, particle size 1.9 μm) equipped with an electron spray ionization source (ESI). The mass detection was recorded in the range of […]\n2) B) Biochemical Assays Materials and Methods\nSurface Plasmon Resonance (SPR)\nAll SPR experiments were conducted on a Biacore T200, S200 or 8K instrument (GE Healthcare) at 20 °C using HBS-P+ as running buffer (GE Healthcare). A CM5 sensor chip (GE Healthcare) was conditioned three times at 60 s using 50 mM NaOH, 1 M NaCl prior to standard NHS/EDC activation (e.g. amine coupling in the Biacore instruction manual) of the sensor surface for 420 s.\nRecombinant human SPSB2 (product ID: ab134592, Abcam, Cambridge, UK) was diluted to 200 nM using 10 mM Sodium acetate pH 5. 5 and injected over the activated surface for 300 s. This surface and a surface subjected to only NHS/EDC activation were deactivated using 100 mM Tris -HCl, pH 8.0. The empty surface was used as a reference surface.\nAll PepNat and peptide reference interac tion experiments were conducted by diluting 10 mM DMSO stocks of PepNats and peptide references using digital dispensing (Tecan) to 10 µM, 2.5 µM, 625 nM, 156 nM and 40 nM or 1 µM, 250 nM, 63 nM, 16 nM and 4 nM. All concentrations were serially injected ov er both the SPSB2 containing - and empty surfaces using single -cycle kinetics (GE Healthcare). The resulting sensorgrams were reference - and blank subtracted prior to fitting of the data using a binding kinetic model (Biacore evaluation software).\nDNA constructs, cell culturing, transfections and generation of stable cell lines DNA constructs and cell lines were employed as previously described by Durek et al.7 “cDNAs encoding human MC1 (Genbank accession number NM_002386), MC3 (NM_019888), and MC4 (NM_005912) and MC5 (NM_005913) were cloned into the pcDNA4/TO vector (ThermoFisher). In the constructs, a consensus Kozak sequence (GCCACC) was incorporated immediately before the start ATG. DNA was amplified, isolated and sequenced using standard techniques.\nT-Rex™-293 cells (ThermoFisher) were cultured in DMEM medium, supplemented with 10% foetal bovine serum and 5 µg/ml blasticidin at 37°C in a humidified atmosphere with 10% CO2.\nLipofectamine 2000 (ThermoFisher) was used for transfections according to the manufacturer’s recommendations. Resistant polyclonal populations were generated by selection with Zeocin (0.3 mg/ml, ThermoFisher) for about two weeks after transfection. Individual clones were iso lated using flow cytometry, subsequently expanded, tested for responsiveness to [Nle 4, DPhe7]-α-Melanocyte Stimulating Hormone (NDP-α-MSH) and cryopreserved.” To induce receptor"}, "[1]": {"settings": "the molecule shown is the open-chain precursor, other bond, 37-membered ring, CH(OMe)3/Et3N, DMF, THF, resin, 25.0 °C, with chain assembly"}, "[2]": {"settings": "the molecule shown is the open-chain precursor, amine bond, 37-membered ring, then NaBH3CN, DMF, resin, 25.0 °C"}}, "note": "Read-outs that look alike come from different tables or passages of the source.", "data": [{"compound": "CC[C@H](C)[C@@H]1NC(=O)[C@H](CC(=O)O)NC(=O)[C@H](Cc2ccccc2)N(C)C(=O)[C@H]2N[C@@H](c3ccc(cc3)C(=O)NCCCC[C@@H](C(=O)NCC(N)=O)NC(=O)[C@H](CC(N)=O)NC(=O)[C@H](CC(N)=O)NC(=O)[C@H](CC(N)=O)NC1=O)[C@@H](C(=O)OC)[C@H]2C(=O)OC", "note": "[D4-minor, [IV-FDINNNK ]G]", "values": [{"measurement": "binding to SPSB2 (in words)", "setting": "Recombinant human SPSB2; SPR, hSPSB2", "value": "did not bind"}, {"measurement": "Kd", "setting": "Recombinant human SPSB2; SPR", "value": "> 10", "unit": "µM"}]}, {"compound": "CC[C@H](C)[C@@H]1NC(=O)[C@H](CC(=O)O)NC(=O)[C@H](Cc2ccccc2)N(C)C(=O)[C@@H]2N[C@H](c3ccc(cc3)C(=O)NCCCC[C@@H](C(=O)NCC(N)=O)NC(=O)[C@H](CC(N)=O)NC(=O)[C@H](CC(N)=O)NC(=O)[C@H](CC(N)=O)NC1=O)C1(C(=O)N(C)C(=O)N(C)C1=O)[C@H]2c1ccccc1", "note": "[D7-major, [VII-FDINNNK ]G]", "values": [{"measurement": "fold improved binding affinity compared to disulfide-bridged peptide 24", "setting": "Recombinant human SPSB2; ratio of SPR KD", "value": 4, "unit": "fold"}, {"measurement": "fold higher affinity compared to ortho ether aromatic unit analogue 26", "setting": "Recombinant human SPSB2; ratio of SPR KD, hSPSB2, versus 26", "value": 46, "unit": "fold"}]}, {"compound": "CC[C@H](C)[C@@H]1NC(=O)[C@H](CC(=O)O)NC(=O)[C@H](Cc2ccccc2)N(C)C(=O)[C@@H]2N[C@H](c3ccc(cc3)C(=O)NCCC[C@@H](C(=O)NCC(N)=O)NC(=O)[C@H](CC(N)=O)NC(=O)[C@H](CC(N)=O)NC(=O)[C@H](CC(N)=O)NC1=O)[C@@H]1C(=O)N(C)C(=O)[C@@H]12", "note": "[D8-major, [I-FDINNNOrn ]G]", "values": [{"measurement": "Kd", "setting": "Recombinant human SPSB2; SPR", "value": "0.282 ± 0.093", "unit": "µM"}]}, {"compound": "CC[C@H](C)[C@@H]1NC(=O)[C@H](CC(=O)O)NC(=O)[C@H](Cc2ccccc2)N(C)C(=O)[C@@H]2N[C@H](c3ccc(cc3)C(=O)NCC[C@@H](C(=O)NCC(N)=O)NC(=O)[C@H](CC(N)=O)NC(=O)[C@H](CC(N)=O)NC(=O)[C@H](CC(N)=O)NC1=O)[C@@H]1C(=O)N(C)C(=O)[C@@H]12", "note": "[D9-major, [I-FDINNNDab ]G]", "values": [{"measurement": "Kd", "setting": "Recombinant human SPSB2; SPR", "value": "0.066 ± 0.008", "unit": "µM"}]}, {"compound": "CC[C@H](C)[C@@H]1NC(=O)[C@H](CC(=O)O)NC(=O)[C@H](Cc2ccccc2)N(C)C(=O)[C@@H]2N[C@H](c3ccc(cc3)C(=O)NC[C@@H](C(=O)NCC(N)=O)NC(=O)[C@H](CC(N)=O)NC(=O)[C@H](CC(N)=O)NC(=O)[C@H](CC(N)=O)NC1=O)[C@@H]1C(=O)N(C)C(=O)[C@@H]12", "note": "[D10-major, [I-FDINNNDap ]G]", "values": [{"measurement": "Kd", "setting": "Recombinant human SPSB2; SPR", "value": "0.072 ± 0.016", "unit": "µM"}]}, {"compound": "CC[C@H](C)[C@@H]1NC(=O)[C@H](CC(=O)O)NC(=O)[C@H](C(C)C)N(C)C(=O)[C@H]2N[C@@H](c3ccc(cc3)C(=O)NCCCC[C@@H](C(=O)NCC(N)=O)NC(=O)[C@H](CC(N)=O)NC(=O)[C@H](CC(N)=O)NC(=O)[C@H](CC(N)=O)NC1=O)[C@H]1C(=O)N(C)C(=O)[C@H]12", "note": "[D13-minor, [I-VDINNNK ]G]", "values": [{"measurement": "fold loss of binding for the minor diastereomer", "setting": "Recombinant human SPSB2", "value": 5, "unit": "fold"}]}, {"compound": "CC[C@H](C)[C@@H]1NC(=O)[C@H](CC(=O)O)NC(=O)[C@@H](Cc2ccccc2)N(C)C(=O)[C@@H]2N[C@H](c3ccc(cc3)C(=O)NCCCC[C@@H](C(=O)NCC(N)=O)NC(=O)[C@H](CC(N)=O)NC(=O)[C@H](CC(N)=O)NC(=O)[C@H](CC(N)=O)NC1=O)[C@@H]1C(=O)N(C)C(=O)[C@@H]12", "note": "[D15-major, [I-fDINNNK ]G]", "values": [{"measurement": "Kd", "setting": "Recombinant human SPSB2; SPR", "value": "> 10", "unit": "µM"}]}, {"compound": "CC[C@H](C)[C@@H]1NC(=O)[C@H](CC(=O)O)NC(=O)[C@H](Cc2ccccc2)N(C)C(=O)[C@@H]2N[C@H](c3ccc(cc3)C(=O)NC[C@@H](C(=O)NCC(N)=O)NC(=O)[C@H](CC(N)=O)NC(=O)[C@H](CC(N)=O)NC(=O)[C@H](CC(N)=O)NC1=O)[C@@H]1C(=O)N(c3ccccc3)C(=O)[C@@H]12", "note": "[D17-major, [II-FDINNNDap ]G]", "values": [{"measurement": "Kd", "setting": "Recombinant human SPSB2; SPR", "value": "1.08 ± 0.076", "unit": "µM"}]}, {"compound": "CC[C@H](C)[C@@H]1NC(=O)[C@H](CC(=O)O)NC(=O)[C@H](C(C)C)N(C)C(=O)[C@@H]2N[C@H](c3ccc(cc3)C(=O)NCCCC[C@@H](C(=O)NCC(N)=O)NC(=O)[C@H](CC(N)=O)NC(=O)[C@H](CC(N)=O)NC(=O)[C@H](CC(N)=O)NC1=O)[C@@H]1C(=O)N(c3ccccc3)C(=O)[C@@H]12", "note": "[D18-major, [II-VDINNNK ]G]", "values": [{"measurement": "fold improved binding affinity compared to disulfide-bridged peptide 24", "setting": "Recombinant human SPSB2; ratio of SPR KD", "value": 7, "unit": "fold"}, {"measurement": "fold improved binding affinity compared to cyclic peptide 25", "setting": "Recombinant human SPSB2; ratio of SPR KD, hSPSB2, versus 25", "value": 36, "unit": "fold"}, {"measurement": "fold better affinity than 27", "setting": "Recombinant human SPSB2; ratio of SPR KD, hSPSB2, versus 27", "value": 40, "unit": "fold"}]}, {"compound": "CC[C@H](C)[C@@H]1NC(=O)[C@H](CC(=O)O)NC(=O)[C@H](C(C)C)N(C)C(=O)[C@H]2N[C@@H](c3ccc(cc3)C(=O)NCCCC[C@@H](C(=O)NCC(N)=O)NC(=O)[C@H](CC(N)=O)NC(=O)[C@H](CC(N)=O)NC(=O)[C@H](CC(N)=O)NC1=O)[C@H]1C(=O)N(c3ccccc3)C(=O)[C@H]12", "note": "[D18-minor, [II-VDINNNK ]G]", "values": [{"measurement": "fold loss of binding for the minor diastereomer", "setting": "Recombinant human SPSB2", "value": 63, "unit": "fold"}]}, {"compound": "H-Gly-MePhe-Ala-Leu-Phe-Pro-Gly-Phe-Lys(4-formylbenzoyl)-Gly-resin", "values": [{"measurement": "ring closure, yield after HPLC", "setting": "[1]; then 10/LiBr/Et3N", "value": 14, "unit": "%"}, {"measurement": "ring closure, yield after HPLC", "setting": "[1]; then 11/LiBr/Et3N", "value": 8, "unit": "%"}, {"measurement": "ring closure, conversion", "setting": "[2]; 1% AcOH", "value": 91, "unit": "%"}, {"measurement": "ring closure, conversion", "setting": "[2]; 5% AcOH", "value": 99, "unit": "%"}, {"measurement": "ring closure, conversion", "setting": "[2]; Et3N/4A MS", "value": 4, "unit": "%"}]}]}
